Assay results reported in ChEMBL document CHEMBL5126512, “Current status of carbazole hybrids as anticancer agents” (Eur J Med Chem, 2022).

Key:
MCF7 [1] = test: Cytotoxicity against human MCF7 cells assessed as cell growth inhibition measured after 48 hrs by MTT assay; type: functional, cell-based; details: MCF7, 48 h
MCF7 [2] = test: Potency index, ratio of Doxorubicin IC50 to compound IC50 for cytotoxicity against human MCF7 cells by MTT assay; type: functional
SK-OV-3 = test: Antiproliferative activity against human SK-OV-3 cells assessed as cell growth inhibition measured after 24 hrs by MTT assay; type: functional, cell-based; details: SK-OV-3, 24 h
DU-145 [3] = test: Antiproliferative activity against human DU-145 cells assessed as cell growth inhibition measured after 24 hrs by MTT assay; type: functional, cell-based; details: DU-145, 24 h
MDA-MB-231 [4] = test: Antiproliferative activity against human MDA-MB-231 cells assessed as cell growth inhibition measured after 24 hrs by MTT assay; type: functional, cell-based; details: MDA-MB-231, 24 h
B16-F10 = test: Antiproliferative activity against mouse B16-F10 cells assessed as cell growth inhibition measured after 24 hrs by MTT assay; type: functional, cell-based; details: B16-F10, 24 h
MCF7 [5] = test: Antiproliferative activity against human MCF7 cells assessed as cell growth inhibition measured after 72 hrs by MTT assay; type: functional, cell-based; details: MCF7, 72 h
MDA-MB-231 [6] = test: Antiproliferative activity against human MDA-MB-231 cells assessed as cell growth inhibition measured after 72 hrs by MTT assay; type: functional, cell-based; details: MDA-MB-231, 72 h
A549 [7] = test: Anticancer activity against human A549 cells assessed as cell growth inhibition measured after 48 hrs by MTT assay; type: functional, cell-based; details: A549, 48 h
MCF7 [8] = test: Anticancer activity against human MCF7 cells assessed as cell growth inhibition measured after 48 hrs by MTT assay; type: functional, cell-based; details: MCF7, 48 h
Jurkat = test: Antiproliferative activity against human Jurkat cells assessed as cell growth inhibition measured after 48 hrs by MTT assay; type: functional, cell-based
HT-29 = test: Antiproliferative activity against human HT-29 cells assessed as cell growth inhibition measured after 48 hrs by MTT assay; type: functional, cell-based; details: HT-29, 48 h
SW837 = test: Antiproliferative activity against human SW837 cells assessed as cell growth inhibition measured after 48 hrs by MTT assay; type: functional, cell-based; details: SW837, 48 h
MDA-MB-231 [9] = test: Antiproliferative activity against human MDA-MB-231 cells assessed as cell growth inhibition measured after 48 hrs by MTT assay; type: functional, cell-based; details: MDA-MB-231, 48 h
HCT-116 = test: Antiproliferative activity against human HCT-116 cells assessed as cell growth inhibition measured after 48 hrs by MTT assay; type: functional, cell-based; details: HCT-116, 48 h
[10] = Cytotoxicity activity against African green monkey vero cells assessed as cell growth inhibition measured after 72 hrs by MTT assay; type: toxicity, cell-based, Chlorocebus sabaeus
[11] = Cytotoxicity activity against human PBMC cells assessed as cell growth inhibition measured after 72 hrs by MTT assay; type: toxicity, cell-based
K562 = test: Cytotoxicity activity against human K562 cells assessed as cell growth inhibition measured after 72 hrs by MTT assay; type: functional, cell-based; details: K562, 72 h
MDA-MB-231 [12] = test: Cytotoxicity against human MDA-MB-231 cells assessed as cell growth inhibition measured after 48 hrs by MTT assay; type: functional, cell-based; details: MDA-MB-231, 48 h
[13] = Cytotoxicity against human HUVEC cells assessed as cell growth inhibition measured after 48 hrs by MTT assay; type: toxicity, cell-based
HeLa [14] = test: Cytotoxicity against human HeLa cells assessed as cell growth inhibition measured after 48 hrs by MTT assay; type: functional, cell-based
[15] = Cytotoxicity against human MRC5 cells assessed as cell growth inhibition measured after 72 by Cell-Titre Glo luminescent cell viability assay; type: toxicity, cell-based
ASPC1 = test: Anticancer activity against human ASPC1 cells assessed as cell growth inhibition measured after 72 hrs by Cell-Titre Glo luminescent cell viability assay; type: functional, cell-based; details: ASPC1, 72 h
[16] = Cytotoxicity against human ARPE-19 cells assessed as cell growth inhibition measured after 72 by Cell-Titre Glo luminescent cell viability assay; type: toxicity, cell-based
SW1990 = test: Anticancer activity against human SW1990 cells assessed as cell growth inhibition measured after 72 hrs by Cell-Titre Glo luminescent cell viability assay; type: functional, cell-based; details: SW1990, 72 h
[17] = Cytotoxicity against human NHDF cells assessed as cell growth inhibition measured after 72 hrs by SRB assay; type: toxicity, cell-based
A549 [18] = test: Antiproliferative activity against human A549 cells assessed as cell growth inhibition measured after 72 hrs by SRB assay; type: functional, cell-based; details: A549, 72 h
A498 = test: Antiproliferative activity against human A498 cells assessed as cell growth inhibition measured after 72 hrs by SRB assay; type: functional, cell-based; details: A498, 72 h
Hep 3B2 = test: Cytotoxicity against human Hep3B cells assessed as cell growth inhibition measured after 48 hrs by MTT assay; type: functional, cell-based
SMMC-7721 = test: Cytotoxicity against human SMMC-7721 cells assessed as cell growth inhibition measured after 48 hrs by MTT assay; type: functional, cell-based; details: SMMC-7721, 48 h
HepG2 [19] = test: Antitumor activity against human HepG2 xenografted in BALB/c nude mouse assessed as tumor growth inhibition at 50 mg/kg, iv administered every 2 days and measured upto 30 days relative to control; type: functional; details: read-out: TGI
DU-145 [20] = test: Antiproliferative activity against human DU-145 cells assessed as cell growth inhibition measured after 48 hrs by MTT assay; type: functional, cell-based; details: DU-145, 48 h
HeLa [21] = test: Antiproliferative activity against human HeLa cells assessed as cell growth inhibition measured after 48 hrs by MTT assay; type: functional, cell-based
OVCAR-3 = test: Antiproliferative activity against human OVCAR-3 cells assessed as cell growth inhibition measured after 48 hrs by MTT assay; type: functional, cell-based; details: OVCAR-3, 48 h
PA-1 = test: Antiproliferative activity against human PA-1 cells assessed as cell growth inhibition measured after 48 hrs by MTT assay; type: functional, cell-based; details: PA-1, 48 h
HepG2 [22] = test: Antiproliferative activity against human HepG2 cells assessed as cell growth inhibition measured after 48 hrs by MTT assay; type: functional, cell-based; details: HepG2, 48 h

N#CC1=C(N)Oc2ccc3c([nH]c4ccccc43)c2C12C(=O)N(Cc1cn(Cc3ccc([N+](=O)[O-])cc3)nn1)c1ccccc12 (stereo not drawn)
IC50 (MCF7 [1]): 2.13 µM | Ratio IC50 (MCF7 [2]): 2.1

CNC1=C([N+](=O)[O-])C(c2cc(OC)c(OC)c(OC)c2)c2ccc3[nH]c4ccccc4c3c2O1 (stereo not drawn)
IC50 (SK-OV-3): 5.1 µM | IC50 (DU-145 [3]): 5.1 µM | IC50 (MDA-MB-231 [4]): 5.1 µM | IC50 (B16-F10): 5.1 µM

C[N+](C)(C)CCN1CCN(CCCCCCn2c3ccccc3c3cc(Cl)ccc32)CC1
IC50 (MCF7 [5]): 4.4 µM | IC50 (MDA-MB-231 [6]): 4.4 µM

O=C1c2[nH]c3ccc(Cl)cc3c2CC[C@@]12[C@@H](c1ccc(Cl)cc1)C1CSCN1C21c2ccccc2-c2nc3ccccc3nc21 (stereo partly drawn)
IC50 (A549 [7]): 20 µM | IC50 (MCF7 [8]): 21 µM

O=C(Cn1c2ccccc2c2c3oc(=O)cc(COC(=O)CCCc4ccc(N(CCCl)CCCl)cc4)c3ccc21)NCCC[P+](c1ccccc1)(c1ccccc1)c1ccccc1
IC50 (Jurkat): 20 µM

Oc1cc2[nH]c3ccccc3c2cc1CN1CCCCC1
IC50 (HT-29): 18 µM | IC50 (SW837): 16 µM | IC50 (MDA-MB-231 [9]): 16 µM | IC50 (HCT-116): 18 µM

Cc1c2ccncc2c(C)c2c1[nH]c1c(S(=O)(=O)O)cc(Br)cc12
IC50 at 72 h [10]: > 100 µM | IC50 at 72 h [11]: > 100 µM | IC50 (K562): 35 µM

CCCCCn1cc(CN2C(=O)C3(C(C#N)=C(N)Oc4ccc5c([nH]c6ccccc65)c43)c3ccccc32)nn1 (stereo not drawn)
IC50 (MCF7 [1]): 4.8 µM | IC50 (MDA-MB-231 [12]): 4.8 µM | IC50 at 48 h [13]: 4.8 µM | IC50 (HeLa [14]): 4.8 µM

CCCCn1c2ccccc2c2cc(/C=N/NC(=O)c3ccncc3)ccc21
IC50 [15]: 64.8 µM | IC50 (ASPC1): 3.42 µM | IC50 [16]: 65.6 µM | IC50 (SW1990): 22.4 µM

Cc1c2ccncc2c(C(=O)NCCN(C)C)c2c3cc(CO)ccc3n(C)c12
IC50 at 72 h [17]: 7.33 µM | IC50 (A549 [18]): 0.65 µM | IC50 (A498): 0.78 µM

COc1cccc2c1C(=O)c1c(O)c3c(c(O)c1C2=O)C[C@@](O)(C(=O)CO)C[C@@H]3O[C@H]1C[C@H](N)[C@H](O)[C@H](C)O1 [DOXORUBICIN]
IC50 (Hep 3B2): 1.02 µM | IC50 (SMMC-7721): 1.02 µM

COc1ccc(/C=C\c2cc(OC)c(OC)c(OC)c2)cc1OP(=O)(O)O [FOSBRETABULIN]
inhibition in vivo at 50 mg/kg (HepG2 [19]): 48.3%

COc1ccc2[nH]c3c4c(c(C)cc3c2c1)OC(C)(C)C=C4 [KOENIMBINE]
IC50 (DU-145 [20]): 0.2 µM | IC50 (HeLa [21]): 0.2 µM | IC50 (OVCAR-3): 0.2 µM | IC50 (PA-1): 0.2 µM | IC50 (HepG2 [22]): 0.2 µM | IC50 (HCT-116): 0.2 µM
